{
  "source": "patent US10004786B2",
  "about": "(Zealand Pharma A/S, priority 2009, dated 2018)",
  "type_in_all_cases": "in vivo",
  "key": {"[1]": {"experiment": "Pharmacokinetic screening in mouse plasma after subcutaneous administration", "settings": "sc, mice, 100 nmol/kg s.c., * = only two time points used for calculation", "procedure": "Mice were dosed 100 nmol/kg subcutaneously (s.c.). The mice were sacrificed and the blood collected at the following time points; 0.5, 2, 4, 6, 16 and 24 h. Plasma samples were analyzed using protein precipitation, followed by solid phase extraction (SPE) and liquid chromatography mass spectrometry (LC-MS).\nPharmacokinetic profiles were determined for various acylated compounds."}, "[2]": {"experiment": "HbA1c in db/db mice after 28 days", "settings": "4 weeks, 12.7 nmol/kg, P=0.03 Students t-test", "procedure": "Male mice (Long term high fat fed C57Bl/6J, short term high fat fed C57Bl/6J and db/db) were acclimatized with free access to food and water. They were housed in groups of 5-6 in a light-, temperature-, and humidity-controlled room (12-hour light:12-hour dark cycle, lights On/Off at 2000/0800 hour; 24° C.; 50% relative humidity).\nThe animals were injected s.c. with 100 μl vehicle (once a day) for a period of three days to acclimatize the animals to handling and injections. Blood samples were taken from the eye or from the tip of the tail. The animals were randomized before treatment.\nMice were treated twice daily s.c. with GluGLP-1 agonist or vehicle (injection volume=2.5 ml/kg). Throughout the study, body weights were recorded daily and used to administer the body weight-corrected doses of peptide. Peptide solutions were prepared fresh immediately before dosing. […]\nThe HbA1c determination is based on Turbidimetric INhibition ImmunoAssay (TINIA) in which HbA1c in the sample reacts with anti-HbA1c to form soluble antigen-antibody complexes. Additions of polyhaptens react with excess anti-HbA1c antibodies to form an insoluble antibody-polyhapten complex, which can be measured turbidimetrically. Liberated hemoglobin in the hemolyzed sample is converted to a derivative having a characteristic absorption spectrum, which is measured bichromatically during the preincubation phases. […]"}, "[3]": {"experiment": "Total cholesterol and HDL/LDL ratio in Diet Induced Obese (DIO) mice", "settings": "4 weeks, 12.7 nmol/kg, plasma, P<0.0001", "procedure": "The assay is an enzymatic colorimetric method. In the presence of magnesium ions, dextran sulfate selectively forms water-soluble complexes with LDL, VLDLA and chylomicrons, which are resistant to PEG-modified enzymes. The HDL cholesterol is determined enzymatically by cholesterol esterase and cholesterol oxidase coupled with PEG to the amino groups. Cholesterol esters are broken down quantitatively to free cholesterol and fatty acids. HDL cholesterol is enzymatically oxidized to choles-4-en-3-one and H2O2, and the formed H2O2 is measured colorimetrically (Cobas®; Application note HDLC3).\nThe direct determination of LDL takes advantage of the selective micellary solubilization of LDL by a nonionic detergent and the interaction of a sugar compound and lipoproteins (VLDL and chylomicrons). The combination of a sugar compound with detergent enables the selective determination of LDL in plasma. […] Free cholesterol is then oxidized and the formed H2O2 is measured colorimetrically (Application note LDL_C, Cobas®).\nDiet Induced Obese (DIO) mice were treated with vehicle or compound 7 for 4 weeks and plasma prepared from the collected blood samples. The total cholesterol, LDL and HDL were determined in each plasma sample (Cobas® application notes: CHOL2, HDLC3 and LDL_C) and results are shown in FIGS. 5 and 6."}, "[4]": {"experiment": "Body weight gain in high fat fed C57BL/6J mice (10 days)", "settings": "5 nmol/kg b.i.d. s.c., short term high fat-fed C57BL/6J mice", "in_short": "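Male C57Bl/6J mice fed high fat diet for 4 weeks from 6 weeks of age, vehicle-acclimatized 3 days, then dosed b.i.d. s.c. with peptide at 0.5 and 5 nmol/kg or vehicle. Doses corrected to daily body weights, which were recorded throughout.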"}, "[5]": {"experiment": "Oral glucose tolerance 2, 4, 6, 8, 10 and 12 h after dosing in high fat fed mice", "settings": "10 nmol/kg s.c. single dose, high fat fed C57BL/6J mice", "procedure": "C57Bl/6J male mice, 6 weeks old, were acclimatized to their new environment with free access to a high fat diet (D12492, Research Diet Inc., New Brunswick, USA) and water. The animals were injected s.c. with vehicle for a period of three days to acclimatize the animals to handling and injections. Blood samples were taken from the tip of the tail and blood glucose measured. The blood glucose (mM) concentration was analyzed by the immobilized glucose oxidase method using a drop of blood (<5 μl; Contour Autoanalyser, Bayer, Denmark) following the manufacturer's manual. After 4 weeks on the high fat diet the animals were weighed and the body weight was used to administer a body weight-corrected dose of peptide. An oral glucose tolerance test (OGTT) was performed after subjecting the animals to 4 hours of fasting. At 2, 4, 6, 8, 10 and 12 hours after single peptide or vehicle dosing an initial blood sample were taken (t=−0 min). Immediately thereafter, an oral dose of glucose (1 g/kg) was given and the animals were returned to their home cages (t=0). BG levels were measured at t=15 min, t=30 min, t=60 min and t=90 min. […]\nAn oral glucose tolerance test (OGTT) was performed after subjecting the animals to 4 hours of fasting. […] BG levels were measured at t=15 min, t=30 min, t=60 min and t=90 min. […]"}, "[6]": {"experiment": "Food intake in young lean and old obese C57BL/6J mice", "settings": "s.c. at t=0 h and t=12 h, p<0.05 versus vehicle", "procedure": "C57BL/6J mice were on a high fat diet for 11 days and C57BL/6J mice were on a high fat diet for 52 weeks.\n3 days before study, the mice were transferred to individual cages and weighed. 4 days before study, they were acclimatized to handling and treatment by daily s.c. injections. On the day before the experiment food was removed at 20:00. […] Immediately after treatment (t=0), pre-weighed food were introduced to the mice and the cumulative food intake was measured by weighing the remaining food after t=1, 2, 4, 8, 12 and 24 hours. After weighing the food and the animals at t=24 h, the mice were sacrificed by cervical dislocation.\nImmediately after treatment (t=0), pre-weighed food were introduced to the mice and the cumulative food intake was measured by weighing the remaining food after t=1, 2, 4, 8, 12 and 24 hours."}},
  "data": [
    {"smiles": "CCCCCCCCCCCCCCCC(=O)N[C@@H](CCC(=O)NCCCC[C@H](NC(=O)[C@H](CO)NC(=O)[C@H](CC(=O)O)NC(=O)[C@H](CC(C)C)NC(=O)[C@H](Cc1ccc(O)cc1)NC(=O)[C@H](CCCCN)NC(=O)[C@H](CO)NC(=O)[C@H](Cc1ccc(O)cc1)NC(=O)[C@H](CC(=O)O)NC(=O)[C@H](CO)NC(=O)[C@@H](NC(=O)[C@H](Cc1ccccc1)NC(=O)[C@@H](NC(=O)CNC(=O)[C@H](CCC(N)=O)NC(=O)C(C)(C)NC(=O)[C@@H](N)Cc1c[nH]cn1)[C@@H](C)O)[C@@H](C)O)C(=O)N[C@@H](C)C(=O)N[C@@H](C)C(=O)N[C@@H](Cc1c[nH]cn1)C(=O)N[C@@H](CC(=O)O)C(=O)N[C@@H](Cc1ccccc1)C(=O)N[C@H](C(=O)N[C@@H](CCC(=O)O)C(=O)N[C@@H](Cc1c[nH]c2ccccc12)C(=O)N[C@@H](CC(C)C)C(=O)N[C@@H](CC(C)C)C(=O)N[C@@H](CO)C(=O)N[C@@H](C)C(N)=O)C(C)C)C(=O)O", "note": "[Compound 7]", "values": [
      {"measurement": "half-life", "setting": "[1]", "result": 3.4, "unit": "h"},
      {"measurement": "ΔHbA1c (%) compared to vehicle", "setting": "[2]", "result": "decreased ΔHbA1c (%) significantly"},
      {"measurement": "HDL/LDL-ratio", "setting": "[3]", "result": "increased the HDL/LDL-ratio"},
      {"measurement": "total cholesterol concentrations", "setting": "[3]", "result": "decreased total cholesterol concentrations"},
      {"measurement": "body weight gain, high dose", "setting": "[4]", "result": "significantly decreased body weight gain at the high dose"},
      {"measurement": "glucose tolerance (AUC during oral glucose tolerance test)", "setting": "[5]", "result": "significantly improves glucose tolerance"},
      {"measurement": "food intake, old obese mice", "setting": "[6]; high fat diet for 52 weeks", "result": "reduced food intake during the 0-2, 0-4, 0-8, 0-12 and 0-24 time periods"},
      {"measurement": "food intake, young lean mice", "setting": "[6]; high fat diet for 11 days", "result": "reduced food intake during the 0-4, 0-8, 0-12 and 0-24 time periods"}
    ]}
  ]
}
